From patent publication US9969710B2, “Heteroaryl compounds as IRAK inhibitors and uses thereof” (Merck Patent GmbH, priority 2015, dated 2018)

Legend:
IRAK1 = target: T1, IRAK1 (Homo sapiens, UniProt P51617); assay: IRAK1 enzymatic assay (ADP-Glo luminescence); type: biochemical; conditions: human recombinant His-TEV-IRAK1 (194-712), ATP 1 μM; read-out: IRAK 1 IC50
T1 construct: His-TEV-IRAK1 (194-712); His (N); TEV cleavage site (N)
Summary of the method: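 His-TEV-IRAK1(194-712) ([…]) preincubated 15 min RT with compounds (10 μM–0.5 nM) in 50 mM Hepes pH 7.0, 10 mM MgCl2, 2 mM DTT, 0.1% BSA. Reaction started with 1 μM ATP, 2 h RT. ADP formed read by ADP-Glo luminescence.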

IRAK4 = target: T2, IRAK4 (Homo sapiens, UniProt Q9NWZ3); assay: IRAK4 enzymatic assay (ADP-Glo luminescence); type: biochemical; conditions: human recombinant His-TEV-IRAK4 (1-460), STK1-biotin peptide substrate
T2 construct: His-TEV-IRAK4 (1-460); His (N); TEV cleavage site (N)
T2 sequence (Q9NWZ3 1-460): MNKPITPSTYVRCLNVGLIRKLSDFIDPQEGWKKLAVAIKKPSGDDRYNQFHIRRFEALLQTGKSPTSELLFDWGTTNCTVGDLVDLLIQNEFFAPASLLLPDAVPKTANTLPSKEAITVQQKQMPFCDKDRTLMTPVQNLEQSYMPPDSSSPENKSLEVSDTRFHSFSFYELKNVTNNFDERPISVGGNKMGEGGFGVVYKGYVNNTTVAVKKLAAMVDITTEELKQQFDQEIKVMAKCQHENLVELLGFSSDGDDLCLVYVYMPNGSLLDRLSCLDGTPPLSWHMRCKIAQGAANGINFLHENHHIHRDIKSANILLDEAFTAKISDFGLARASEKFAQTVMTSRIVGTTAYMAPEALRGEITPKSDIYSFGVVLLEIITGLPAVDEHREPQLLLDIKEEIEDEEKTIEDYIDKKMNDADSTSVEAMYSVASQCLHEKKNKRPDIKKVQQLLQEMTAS
Summary of the method: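 His-TEV-IRAK4(1-460) at […] was preincubated with compound (10 μM to 0.5 nM) for 15 min at RT in 50 mM Hepes pH 7.0 with MgCl2, MnCl2, DTT, BSA and Triton. Reactions with ATP ([…]) and STK1-biotin peptide (300 nM) ran 2 h at RT. ADP formed was read by ADP-Glo luminescence.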

[1] = system: TLR7 induced IL-6 secretion in human mononuclear cells (PBMC's); assay: TLR7 induced IL-6 in human PBMC's; type: cell-based; conditions: Homo sapiens, PBMC, TLR7 specific ligand 2 uM overnight, IL-6 AlphaLISA
Summary of the method: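 Fresh or frozen healthy-donor PBMCs pre-treated 30 min at 37 °C with compounds (25 uM to 0.4 nM) before overnight (16-18 h) stimulation with TLR7 ligand at 2 uM. IL-6 in supernatant quantified by AlphaLISA.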

T1 sequence (P51617 194-712): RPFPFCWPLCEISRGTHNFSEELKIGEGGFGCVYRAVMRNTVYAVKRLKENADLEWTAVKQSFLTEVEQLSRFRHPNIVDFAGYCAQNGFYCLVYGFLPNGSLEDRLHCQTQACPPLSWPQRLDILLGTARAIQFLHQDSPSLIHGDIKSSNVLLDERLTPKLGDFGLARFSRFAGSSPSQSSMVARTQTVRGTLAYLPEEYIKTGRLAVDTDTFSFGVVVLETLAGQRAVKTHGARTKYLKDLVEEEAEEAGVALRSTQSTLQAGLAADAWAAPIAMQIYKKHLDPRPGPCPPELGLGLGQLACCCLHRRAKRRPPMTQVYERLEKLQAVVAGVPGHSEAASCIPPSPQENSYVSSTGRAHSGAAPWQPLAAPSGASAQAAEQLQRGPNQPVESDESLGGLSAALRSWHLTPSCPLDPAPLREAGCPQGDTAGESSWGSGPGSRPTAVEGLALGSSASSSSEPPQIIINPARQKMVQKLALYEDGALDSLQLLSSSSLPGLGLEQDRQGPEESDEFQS

Structure (SMILES) | IC50 (IRAK1) [nM] | IC50 (IRAK4) [nM] | IC50 [1] [nM] | melting point [°C]
CN1C(=O)CCC1(C)c1ccc2c(c1)nc(NC(=O)c1cccc(C(F)(F)F)c1)n2CCCO (stereo not shown) [Compound 32, N-[5-(1,2-Dimethyl-5-oxo-pyrrolidin-2-yl)-1-(3-hydroxy-propyl)-1H-benzoimidazol-2-yl]-3-trifluoromethyl-benzamide] | 100 to 1000 | ≤ 100 | 1000 to 10000 | 99 to 100
CN1CCOC(c2ccc3c(c2)nc(NC(=O)c2cccc(C(F)(F)F)c2)n3CC(C)(F)CO)C1=O (stereo not shown) [Compound 28, N-[1-(2-Fluoro-3-hydroxy-2-methyl-propyl)-5-(4-methyl-3-oxo-morpholin-2-yl)-1H-benzoimidazol-2-yl]-3-trifluoromethyl-benzamide] | 100 to 1000 | ≤ 100 | ≤ 100 | 121 to 124
CN1CCC(c2ccc3c(c2)nc(NC(=O)c2cccc(C(F)F)c2)n3CCCO)C1=O (stereo not shown) [Compound 24, 3-(difluoromethyl)-N-[1-(3-hydroxypropyl)-5-(1-methyl-2-oxopyrrolidin-3-yl)-1H-1,3-benzodiazol-2-yl]benzamide] | 100 to 1000 | ≤ 100 | ≤ 100 | 166 to 168
CN1CCOC(c2ccc3c(c2)nc(NC(=O)c2cccc(C(F)F)c2)n3CC(C)(F)CO)C1=O (stereo not shown) [Compound 26, 3-Difluoromethyl-N-[1-(2-fluoro-3-hydroxy-2-methyl-propyl)-5-(4-methyl-3-oxo-morpholin-2-yl)-1H-benzoimidazol-2-yl]-benzamide] | 100 to 1000 | ≤ 100 | 100 to 1000 | 118 to 120
